Read-outs that look alike come from different tables or passages of the source.
How the values were obtained:
Experiment in all cases: stopped-flow CO2 hydrase assay
Type in all cases: biochemical
[1] = biological target: T1, hCA IX (Homo sapiens, UniProt Q16790); conditions: read-out: KI (μM)^a^,b / hCA IX
T1 construct: gene CA9; recombinant
Excerpt: stopped-flow CO2 hydrase assay on hCA IX

[2] = biological target: T2, hCA I (Homo sapiens, UniProt P00915); conditions: read-out: KI (μM)^a^,b / hCA I
T2 construct: gene CA1; recombinant
Excerpt: stopped-flow CO2 hydrase assay on hCA I

[3] = biological target: T3, hCA II (Homo sapiens, UniProt P00918); conditions: read-out: KI (μM)^a^,b / hCA I
T3 construct: gene CA2; recombinant

[4] = biological target: T4, hCA XII (Homo sapiens, UniProt O43570); conditions: read-out: KI (μM)^a^,b / hCA XII
T4 construct: gene CA12; recombinant
Excerpt: stopped-flow CO2 hydrase assay on hCA XII

[5] = biological target: T4, hCA XII; conditions: read-out: KI (μM)^a^,b / hCA I
[6] = biological target: T1, hCA IX; conditions: read-out: KI (μM)^a^,b / hCA I

T2 sequence (P00915 2-261): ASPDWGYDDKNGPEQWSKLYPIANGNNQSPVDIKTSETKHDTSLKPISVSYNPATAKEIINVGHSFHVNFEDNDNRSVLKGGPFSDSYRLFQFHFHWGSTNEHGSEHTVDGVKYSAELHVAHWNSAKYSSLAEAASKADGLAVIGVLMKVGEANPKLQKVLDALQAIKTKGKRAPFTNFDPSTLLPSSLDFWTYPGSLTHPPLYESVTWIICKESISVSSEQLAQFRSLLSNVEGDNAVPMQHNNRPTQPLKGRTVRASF
T4 sequence (O43570 25-354 limits assumed): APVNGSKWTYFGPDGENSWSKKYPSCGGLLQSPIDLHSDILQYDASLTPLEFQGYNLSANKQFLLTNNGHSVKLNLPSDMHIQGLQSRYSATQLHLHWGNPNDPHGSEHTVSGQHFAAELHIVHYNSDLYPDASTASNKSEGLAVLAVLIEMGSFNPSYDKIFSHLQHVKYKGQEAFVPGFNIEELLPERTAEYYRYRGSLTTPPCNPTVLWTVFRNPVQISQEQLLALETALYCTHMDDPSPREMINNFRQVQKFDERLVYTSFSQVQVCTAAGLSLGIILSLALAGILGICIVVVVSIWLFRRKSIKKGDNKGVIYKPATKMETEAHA

Row | SMILES | Ki [1] [µM] | Ki [2] [µM] | Ki [3] [µM] | Ki [4] [µM] | Ki [5] [µM] | Ki [6] [µM]
1 | N#Cc1ccc(-n2cc(C=C3C(=O)NC(=S)NC3=O)c(-c3cc4ccccc4c(=O)o3)n2)cc1 [X18, 4–(4-((4,6-dioxo-2-thioxotetrahydropyrimidin-5(2H)-ylidene)methyl)-3–(1-oxo-1H-isochromen-3-yl)-1H-pyrazol-1-yl) benzonitrile] | 78.9 | > 100 | > 100 | 53.4 | – | –
2 | O=C1NC(=O)C(=Cc2cn(-c3ccc(Cl)cc3)nc2-c2cc3ccccc3c(=O)o2)C(=O)N1 [X12, 5-((1–(4-chlorophenyl)-3–(1-oxo-1H-isochromen-3-yl)-1H-pyrazol-4-yl)methylene) pyrimidine-2,4,6(1H,3H,5H)-trione] | – | > 100 | > 100 | – | > 100 | > 100
3 | Cc1c(-c2nn(-c3ccccc3)cc2C=C2C(=O)NC(=S)NC2=O)oc(=O)c2ccccc12 [X19, 5-((3–(4-methyl-1-oxo-1H-isochromen-3-yl)-1-phenyl-1H-pyrazol-4-yl)methylene)-2-thioxodihydropyrimidine-4,6(1H,5H)-dione] | 72.3 | > 100 | > 100 | 62.8 | – | –
4 | O=C1NC(=S)NC(=O)C1=Cc1cn(-c2ccc(Cl)cc2)nc1-c1cc2ccccc2c(=O)o1 [X17, 5-((1–(4-chlorophenyl)-3–(1-oxo-1H-isochromen-3-yl)-1H-pyrazol-4-yl)methylene)-2-thioxodihydropyrimidine-4,6(1H,5H)-dione] | – | > 100 | > 100 | – | > 100 | > 100
5 | CC(=NNc1ccc(Cl)cc1)c1cc2ccccc2c(=O)o1 [X2, 3–(1-(2–(4-chlorophenyl) hydrazono)ethyl)-1H-isochromen-1-one] | 3.5 | > 100 | > 100 | 4.6 | – | –
6 | O=Cc1cn(-c2ccc(Cl)cc2)nc1-c1cc2ccccc2c(=O)o1 [X7, 1–(4-chlorophenyl)-3–(1-oxo-1H-isochromen-3-yl)-1H-pyrazole-4-carbaldehyde] | 6.2 | > 100 | > 100 | 11.6 | – | –
7 | Cc1c(-c2nn(-c3ccc(Cl)cc3)cc2C=C2C(=O)NC(=O)NC2=O)oc(=O)c2ccccc12 [X15, 5-((1–(4-chlorophenyl)-3–(4-methyl-1-oxo-1H-isochromen-3-yl)-1H-pyrazol-4-yl)methylene) pyrimidine-2,4,6(1H,3H,5H)-trione] | – | > 100 | > 100 | – | > 100 | > 100
8 | Cc1c(-c2nn(-c3ccc(Cl)cc3)cc2C=C2C(=O)NC(=S)NC2=O)oc(=O)c2ccccc12 [X20, 5-((1–(4-chlorophenyl)-3–(4-methyl-1-oxo-1H-isochromen-3-yl)-1H-pyrazol-4-yl)methylene)-2-thioxodihydropyrimidine-4,6(1H,5H)-dione] | – | > 100 | > 100 | – | > 100 | > 100
9 | O=Cc1cn(-c2ccccc2)nc1-c1cc2ccccc2c(=O)o1 [X6, 3–(1-oxo-1H-isochromen-3-yl)-1-phenyl-1H-pyrazole-4-carbaldehyde] | 7.1 | > 100 | > 100 | 6.5 | – | –
10 | N#Cc1ccc(-n2cc(C=C3C(=O)NC(=O)NC3=O)c(-c3cc4ccccc4c(=O)o3)n2)cc1 [X13, 4–(3-(1-oxo-1H-isochromen-3-yl)-4-((2,4,6-trioxotetrahydropyrimidin-5(2H)-ylidene)methyl)-1H-pyrazol-1-yl) benzonitrile] | 62.4 | > 100 | > 100 | 36.2 | – | –
11 | CC(=NNc1ccc(Cl)cc1)c1oc(=O)c2ccccc2c1C [X5, 3–(1-(2–(4-chlorophenyl) hydrazono)ethyl)-4-methyl-1H-isochromen-1-one] | 2.7 | > 100 | > 100 | 5.8 | – | –
12 | CC(=NNc1ccccc1)c1oc(=O)c2ccccc2c1C [X4, 4-methyl-3–(1-(2-phenylhydrazono)ethyl)-1H-isochromen-1-one] | 3.9 | > 100 | > 100 | 2.3 | – | –
13 | Cc1c(-c2nn(-c3ccc(Cl)cc3)cc2C=O)oc(=O)c2ccccc12 [X10, 1–(4-chlorophenyl)-3–(4-methyl-1-oxo-1H-isochromen-3-yl)-1H-pyrazole-4-carbaldehyde] | 8.1 | > 100 | > 100 | 13.4 | – | –
14 | CC(=NNc1ccccc1)c1cc2ccccc2c(=O)o1 [X1, 3–(1-(2-phenylhydrazono)ethyl)-1H-isochromen-1-one] | 4.3 | > 100 | > 100 | 1.9 | – | –
15 | O=C1NC(=O)C(=Cc2cn(-c3ccccc3)nc2-c2cc3ccccc3c(=O)o2)C(=O)N1 [X11, 5-((3–(1-oxo-1H-isochromen-3-yl)-1-phenyl-1H-pyrazol-4-yl)methylene) pyrimidine-2,4,6(1H,3H,5H)-trione] | 46.2 | > 100 | > 100 | 41.7 | – | –
16 | N#Cc1ccc(-n2cc(C=O)c(-c3cc4ccccc4c(=O)o3)n2)cc1 [X8, 4–(4-formyl-3–(1-oxo-1H-isochromen-3-yl)-1H-pyrazol-1-yl) benzonitrile] | 8 | > 100 | > 100 | 8.3 | – | –
17 | Cc1c(-c2nn(-c3ccccc3)cc2C=O)oc(=O)c2ccccc12 [X9, 3–(4-methyl-1-oxo-1H-isochromen-3-yl)-1-phenyl-1H-pyrazole-4-carbaldehyde] | 8.9 | > 100 | > 100 | 8.1 | – | –
18 | Cc1c(-c2nn(-c3ccccc3)cc2C=C2C(=O)NC(=O)NC2=O)oc(=O)c2ccccc12 [X14, 5-((3–(4-methyl-1-oxo-1H-isochromen-3-yl)-1-phenyl-1H-pyrazol-4-yl)methylene) pyrimidine-2,4,6(1H,3H,5H)-trione] | 54.6 | > 100 | > 100 | 66.5 | – | –
19 | O=C1NC(=S)NC(=O)C1=Cc1cn(-c2ccccc2)nc1-c1cc2ccccc2c(=O)o1 [X16, 5-((3–(1-oxo-1H-isochromen-3-yl)-1-phenyl-1H-pyrazol-4-yl)methylene)-2-thioxodihydropyrimidine-4,6(1H,5H)-dione] | 49.7 | > 100 | > 100 | 47.1 | – | –
20 | CC(=NNc1ccc(C#N)cc1)c1cc2ccccc2c(=O)o1 [X3, 4–(2-(1–(1-oxo-1H-isochromen-3-yl)ethylidene)hydrazinyl) benzonitrile] | – | > 100 | > 100 | 1.2 | – | –

Reference: article PMC8865125, “Isocoumarins: a new class of selective carbonic anhydrase IX and XII inhibitors” (Journal of Enzyme Inhibition and Medicinal Chemistry, 2022)
